Earlier results as cited in PubChem BioAssay AID1259409 (Chemical Carcinogenesis Research Information System (CCRIS), 2018).

Test system: rodent chemically induced tumor inhibition, incidence and multiplicity
Experiment: CCRIS tumor inhibitor studies

Structure (SMILES): O=c1c(-c2ccc(O)cc2)coc2cc(O)cc(O)c12
- tumour outcome (control, treated, inhibition, significance) (Carcinogen: 7,12-DIMETHYLBENZ[A]ANTHRACENE (57-97-6), Dose [Inhibitor]: 140 MG/KG DIET FOR 17 WKS (STUDY DURATION: 17 WKS), Route [Inhibitor]: DIET, Species: RAT, Strain/Sex: SPRAGUE-DAWLEY/FEMALE (20,18)/(20,19), Target Tissue: Type of Lesion: MAMMARY, Dose [Carcinogen]: 12.5 MG ONCE 1 WK AFTER START OF DIET (STUDY DURATION: 17 WKS)): 95%, 85%, 11%, p=0.408
- tumour outcome (control, treated, inhibition, significance) (Carcinogen: 7,12-DIMETHYLBENZ[A]ANTHRACENE [57-97-6], Dose [Inhibitor]: 20 UG/L IN 0.05 ML PEANUT OIL 2X/WK FOR 2 WK BEGINNING AT 7 D OF AGE (STUDY DURATION: 24 WK), Route [Inhibitor]: SUBCUTANEOUS, Species: RAT, Strain/Sex: SPRAGUE-DAWLEY/FEMALE, Target Tissue: Type of Lesion: MAMMARY GLAND: TUMOR, Dose [Carcinogen]: 10 MG IN 1 ML PEANUT OIL ONCE AT 45 D OF AGE (STUDY DURATION: 24 WK), Promoter: NONE): 17/30 (57%), 13/30 (43%), 25%, not significant
- tumour outcome (control, treated, inhibition, significance) (Carcinogen: 7,12-DIMETHYLBENZ[A]ANTHRACENE, 57-97-6, Dose [Inhibitor]: 0, 25 PPM IN DIET FOR 50 WK BEGINNING 1 WK POST-CARCINOGEN DOSE (STUDY DURATION: 51 WK), Route [Inhibitor]: ORAL, Species: RAT, Strain/Sex: SPRAGUE-DAWLEY/FEMALE, Target Tissue: Type of Lesion: OVARY: ADENOCARCINOMA, Dose [Carcinogen]: 0.01 ML OF 0.5% DMBA IN OLIVE OIL INTO THE LEFT OVARY, ONCE, UNDER PENTOBARBITAL ANESTHESIA, Promoter: NONE USED): 7/20 (35%), 1/20 (5%), 86%, p=0.02
- tumour outcome (control, treated, inhibition, significance) (Carcinogen: 7,12-DIMETHYLBENZ[A]ANTHRACENE, 57-97-6, Dose [Inhibitor]: 0, 250 PPM IN DIET FOR 50 WK BEGINNING 1 WK POST-CARCINOGEN DOSE (STUDY DURATION: 51 WK), Route [Inhibitor]: ORAL, Species: RAT, Strain/Sex: SPRAGUE-DAWLEY/FEMALE, Target Tissue: Type of Lesion: OVARY: ADENOCARCINOMA, Dose [Carcinogen]: 0.01 ML OF 0.5% DMBA IN OLIVE OIL INTO THE LEFT OVARY, ONCE, UNDER PENTOBARBITAL ANESTHESIA, Promoter: NONE USED): 7/20 (35%), 0/20 (0%), 100%, p=0.0042
- tumour outcome (control, treated, inhibition, significance) (Carcinogen: 7,12-DIMETHYLBENZ[A]ANTHRACENE, 57-97-6, Dose [Inhibitor]: 0, 500 UG/G BW ONCE ON DAYS 16, 18 AND 20 OF AGE (STUDY DURATION: 200 D), Route [Inhibitor]: SUBCUTANEOUS, Species: RAT, Strain/Sex: SPRAGUE-DAWLEY/FEMALE, Target Tissue: Type of Lesion: MAMMARY GLAND: TUMOR, Dose [Carcinogen]: 80 UG/G BW IN SESAME OIL ONCE AT 50 DAYS OF AGE, Promoter: NONE USED): 92%, 85%, 8%, not significant
- outcome (Carcinogen: Dimethylbenzanthracene, 57-97-6, Dose [Inhibitor]: 10 mg/kg bw/day, suspended in distilled water daily by gavage, dose duration 12 wk, study duration 18 wk, Route [Inhibitor]: Oral, Species: Hamster, Strain/Sex: Syrian golden/Male, Target Tissue: Type of Lesion: Oral cavity, Dose [Carcinogen]: 100 ul of 0.5% DMBA in mineral oil applied with a paint brush 3 times/wk for 6 wk, Promoter: None): 15/28 (53%), 11/27 (40.7%), not significant
- tumour outcome (control, treated, inhibition, significance) (Carcinogen: N-METHYL-N'-NITRO-N-NITROSOGUANADINE, 70-25-7, Dose [Inhibitor]: 0, 15 MG/KG 1/2 D FOR 26 WK BEGINNING 1 WK POST CARCINOGEN TREATMENT (STUDY DURATION: 52 WK), Route [Inhibitor]: SUBCUTANEOUS, Species: RAT, Strain/Sex: WISTAR/MALE, Target Tissue: Type of Lesion: STOMACH: ADENOCARCINOMA, Dose [Carcinogen]: 25 UG/ML IN DRINKING WATER FOR 25 WK, Promoter: SODIUM CHLORIDE, 7647-14-5): 18/20 (90%), 12/20 (60%), 33%, not significant
- tumour outcome (control, treated, inhibition, significance) (Carcinogen: N-METHYL-N-NITROSOUREA, 684-93-5, Dose [Inhibitor]: 0, 1 MG/30 G BW 1/4 WK FOR 25 WK BEGINNING 5 WK POST CARCINOGEN TREATMENT (STUDY DURATION: 30 WK), Route [Inhibitor]: SUBCUTANEOUS, Species: MOUSE, Strain/Sex: ICR/FEMALE, Target Tissue: Type of Lesion: UTERUS (LEFT): ADENOCARCINOMA, Dose [Carcinogen]: 0.1 MG/KG BW INJECTED INTO LEFT UTERINE TUBE ONCE): 3/26 (11%), 0/15 (0%), 100%, not significant
- tumour outcome (control, treated, inhibition, significance) (Carcinogen: N-METHYL-N-NITROSOUREA, 684-93-5, Dose [Inhibitor]: 0, 1 MG/30 G BW 1/4 WK FOR 25 WK BEGINNING 5 WK POST CARCINOGEN TREATMENT (STUDY DURATION: 30 WK), Route [Inhibitor]: SUBCUTANEOUS, Species: MOUSE, Strain/Sex: ICR/FEMALE, Target Tissue: Type of Lesion: UTERUS (LEFT): ADENOCARCINOMA, Dose [Carcinogen]: 0.1 MG/KG BW INJECTED INTO LEFT UTERINE TUBE ONCE, Promoter: 17-BETA-ESTRADIOL, 50-28-2): 8/24 (33%), 0/19 (0%), 100%, p<0.01
- tumour outcome (control, treated, inhibition, significance) (Carcinogen: N-METHYL-N;-NITRO-N-NITROSOGUANIDINE, 70-25-7, Carcinogen: N-METHYL-N;-NITRO-N-NITROSOGUANIDINE, 70-25-7, Dose [Inhibitor]: 0, 30 MG/KG 1/2 FOR 26 WK BEGINNING 1 WK POST CARCINOGEN TREATMENT (STUDY DURATION: 52 WK), Route [Inhibitor]: SUBCUTANEOUS, Species: RAT, Strain/Sex: WISTAR/MALE, Target Tissue: Type of Lesion: STOMACH: ADENOCARCINOMA, Dose [Carcinogen]: 25 UG/ML IN DRINKING WATER FOR 25 WK, Promoter: SODIUM CHLORIDE, 7647-14-5): 18/20 (90%), 7/19 (37%), 59%, p<0.05

Structure (SMILES): CC(C)(c1ccc(O)cc1)c1ccc(O)cc1
- outcome (Carcinogen: N-NITROSOBIS(2-HYDROXYPROPYL)AMINE, 53609-64-6, Dose [Inhibitor]: 0, 10000 PPM IN DIET FOR 27 WK BEGINNING 9 WK POST CARCINOGEN TREATMENT (STUDY DURATION: 37 WK), Route [Inhibitor]: ORAL, Species: RAT, Strain/Sex: F344/FEMALE, Target Tissue: Type of Lesion: THYROID GLAND: ADENOMA, Dose [Carcinogen]: 2000 MG/KG BW 1 WK POST BILATERAL OVARIECTOMY, Promoter: SULFADIMETHOXINE, 122-11-2): 0/12 (0%), 0/15 (0%), 0%, not significant
- tumour outcome (control, treated, inhibition, significance) (Carcinogen: N-NITROSOBIS(2-HYDROXYPROPYL)AMINE, 53609-64-6, Dose [Inhibitor]: 0, 10000 PPM IN DIET FOR 27 WK BEGINNING 9 WK POST CARCINOGEN TREATMENT (STUDY DURATION: 37 WK), Route [Inhibitor]: ORAL, Species: RAT, Strain/Sex: F344/FEMALE, Target Tissue: Type of Lesion: THYROID GLAND: CARCINOMA, Dose [Carcinogen]: 2000 MG/KG BW 1 WK POST BILATERAL OVARIECTOMY, Promoter: SULFADIMETHOXINE, 122-11-2): 10/12 (83%), 4/15 (27%), 67%, p<0.01

Structure (SMILES): C#CCN(C)[C@H](C)Cc1ccccc1
- tumour outcome (control, treated, inhibition, significance) (Carcinogen: 7,12-DIMETHYLBENZ[A]ANTHRACENE [57-97-6], Dose [Inhibitor]: 0.25 MG/KG BW/D FOR 4 WK BEGINNING 4 WK PRIOR TO FIRST CARCINOGEN DOSE (STUDY DURATION: 32 WK), Route [Inhibitor]: INTRAPERITONEAL, Species: RAT, Strain/Sex: SPRAGUE-DAWLEY/FEMALE, Target Tissue: Type of Lesion: MAMMARY GLAND: TUMOR, Dose [Carcinogen]: 10 MG IN 1 ML PEANUT OIL ONCE (STUDY DURATION: 32 WK), Promoter: NONE): 13/15 (87%), 8/15 (53%), 39%, not significant
- tumour outcome (control, treated, inhibition, significance) (Carcinogen: 7,12-DIMETHYLBENZ[A]ANTHRACENE [57-97-6], Dose [Inhibitor]: 0.25 MG/KG BW/D FOR 4 WK BEGINNING 4 WK PRIOR TO FIRST CARCINOGEN DOSE, FOLLOWED BY 0.25 MG/KG BW/D FOR 27 WK POST LAST, Route [Inhibitor]: INTRAPERITONEAL, Species: RAT, Strain/Sex: SPRAGUE-DAWLEY/FEMALE, Target Tissue: Type of Lesion: MAMMARY GLAND: TUMOR, Dose [Carcinogen]: 10 MG IN 1 ML PEANUT OIL ONCE (STUDY DURATION: 32 WK), Promoter: NONE): 13/15 (87%), 9/15 (60%), 31%, not significant
- tumour outcome (control, treated, inhibition, significance) (Carcinogen: 7,12-DIMETHYLBENZ[A]ANTHRACENE [57-97-6], Dose [Inhibitor]: 0.25 MG/KG BW/D FOR 27 WK BEGINNING 4 D POST LAST CARCINOGEN DOSE (STUDY DURATION: 32 WK), Route [Inhibitor]: INTRAPERITONEAL, Species: RAT, Strain/Sex: SPRAGUE-DAWLEY/FEMALE, Target Tissue: Type of Lesion: MAMMARY GLAND: TUMOR, Dose [Carcinogen]: 10 MG IN 1 ML PEANUT OIL ONCE (STUDY DURATION: 32 WK), Promoter: NONE): 13/15 (87%), 10/15 (67%), 23%, not significant
- tumour outcome (control, treated, inhibition, significance) (Carcinogen: 7,12-DIMETHYLBENZ[A]ANTHRACENE [57-97-6], Dose [Inhibitor]: 2.5 MG/KG BW/D FOR 4 WK BEGINNING 4 WK PRIOR TO FIRST CARCINOGEN DOSE (STUDY DURATION: 32 WK), Route [Inhibitor]: INTRAPERITONEAL, Species: RAT, Strain/Sex: SPRAGUE-DAWLEY/FEMALE, Target Tissue: Type of Lesion: MAMMARY GLAND: TUMOR, Dose [Carcinogen]: 10 MG IN 1 ML PEANUT OIL ONCE (STUDY DURATION: 32 WK), Promoter: NONE): 13/15 (87%), 8/15 (53%), 39%, not significant
- tumour outcome (control, treated, inhibition, significance) (Carcinogen: 7,12-DIMETHYLBENZ[A]ANTHRACENE [57-97-6], Dose [Inhibitor]: 2.5 MG/KG BW/D FOR 4 WK BEGINNING 4 WK PRIOR TO FIRST CARCINOGEN DOSE, FOLLOWED BY 2.5 MG/KG BW/D FOR 27 WK POST LAST CA, Route [Inhibitor]: INTRAPERITONEAL, Species: RAT, Strain/Sex: SPRAGUE-DAWLEY/FEMALE, Target Tissue: Type of Lesion: MAMMARY GLAND: TUMOR, Dose [Carcinogen]: 10 MG IN 1 ML PEANUT OIL ONCE (STUDY DURATION: 32 WK), Promoter: NONE): 13/15 (87%), 5/15 (33%), 62%, p<0.0001
- tumour outcome (control, treated, inhibition, significance) (Carcinogen: 7,12-DIMETHYLBENZ[A]ANTHRACENE [57-97-6], Dose [Inhibitor]: 2.5 MG/KG BW/D FOR 27 WK BEGINNING 4 D POST LAST CARCINOGEN DOSE (STUDY DURATION: 32 WK), Route [Inhibitor]: INTRAPERITONEAL, Species: RAT, Strain/Sex: SPRAGUE-DAWLEY/FEMALE, Target Tissue: Type of Lesion: MAMMARY GLAND: TUMOR, Dose [Carcinogen]: 10 MG IN 1 ML PEANUT OIL ONCE (STUDY DURATION: 32 WK), Promoter: NONE): 13/15 (87%), 6/15 (40%), 54%, p<0.0001
